Data on 1 compound can be found in patent US6380231B1 (priority 1995, dated 2002).

On to `CO/C=C(/C(=O)OC)c1ccccc1COc1ncn(-c2ccccc2Cl)n1` [Compound 12, Methyl α-(2-(N′-(o-chlorophenyl)-triazolyl-3′-oxymethyl)-phenyl)-β-methoxyacrylate], for which the melting point was 120 °C.
